According to article PMC10178127, “Immunomodulatory Effects of the Pea Defensin Psd1 in the Caco-2/Immune Cells Co-Culture upon Candida albicans Infection” (International Journal of Molecular Sciences, 2023):

System: Caco-2/moDCs co-culture
Assay: Multiplex xMAP cytokine production, Caco-2/dendritic cells co-culture
Assay type: cell-based, human
Details: 24 h; for EGF level / Eotaxin level / FGF-2 level / FLT-3L level / Fractalkine level / G-CSF level / GM-CSF level / GROa level / IFNa2 level / IFNg level / IL-1RA level / IL-1a level / IL-1b level / IL-2 level / IL-3 level / IL-4 level / IL-5 level / IL-6 level / IL-7 level / IL-8 level / IL-9 level / IL-10 level / IL-12 (p40) level / IL-12 (p70) level / IL-13 level / IL-15 level / IL-17A level / IL-17E/IL-25 level / IL-17F level / IL-18 level / IL-22 level / IL-27 level / IP-10 level / M-GSF level / MCP-1 level / MCP-3 level / MDC level / MIG level / MIP-1a level / MIP-1b level / PDGF-AA level / PDGF-AB/BB level / RANTES level / TGF-a level / TNFa level / TNFb level / VEGFa level / sCD40L level: 2 µM apical, basolateral medium
Text: The co-culture model consisted of immune cells (moDCs or monocytes) lying on the bottom of the culture well, and a Caco-2 polarized monolayer, mimicking intestinal epithelium, on a permeable insert. Immune cells were located on the serosal side of the epithelial barrier. In some inserts Candida albicans was loaded to the apical side of the epithelium, mimicking intestinal lumen colonization with this pathogenic fungus. This co-culture model allows yeast cells to contact only with the apical side of epithelial cells, but not with immune cells. Culture medium, containing cytokines, chemokines, and growth factors, produced by both epithelial and immune cells, was taken from basolateral chambers and analyzed by multiplex xMAP technology after incubation during 24 h when C. albicans cells switched to hyphal form.
For growing cells, mimicking epithelial barriers in vitro, Caco-2 cells were seeded onto 24-well polycarbonate Millicell cell culture inserts (0.4 μm, 0.6 cm^2 surface area) (Millipore, Burlington, MA, USA), precoated with 0.2% bovine gelatin (Sigma-Aldrich), at a density of 2.5 × 10^5 cells/cm^2. The cells were grown for 21 days in a complete DMEM/F12 (1:1) medium with re-feeding every 2–3 days with a fresh complete medium. The integrity of the Caco-2 cell monolayer was checked by measuring the transepithelial electrical resistance (TEER) using a Millicell-ERS Voltohmmeter (Millipore). Only cell monolayers with TEER > 400 Ωcm^2 (after subtracting TEER in blank inserts without Caco-2 cells) were used in transport across epithelial monolayer and cytokine production experiments.
Monocytes and moDCs were seeded into the wells of 48- and 24-well plates in the complete RPMI-1640 medium supplemented with 10% human AB serum (HABS, Capricorn Scientific) without antibiotics 24 h prior to the experiment, and kept in a humidified CO2-incubator (5% CO2, 37 °C). After 24 h, the medium in the wells of the 48-well plate was replaced by fresh complete RPMI-1640 medium with 10% HABS, supplemented with 2 µM of Psd1 for the sample wells or fresh medium alone for the control wells. Medium in the wells of the 24-well plate was replaced by fresh complete RPMI-1640 medium with 10% human serum without antibiotics. Then, Millicell inserts with Caco-2 monolayers with TEER > 400 Ωcm^2 were placed into the wells of the 24-well plate, containing monocytes or moDCs. Wells with Millicell inserts with Caco-2 monolayers without immune cells were used as control wells. Medium in apical chambers of Millicell inserts was replaced by fresh complete RPMI-1640 with 10% human serum medium containing Psd1 at the final concentration of 2 µM or Candida albicans at the concentration of 5 × 10^4 cells/mL or yeast cells together with the pea defensin at the same concentration. Fresh complete RPMI-1640 medium only with 10% human serum and without antibiotics was used in control wells. Plates were kept in CO2-incubator (5% CO2, 37 °C) for another 24 h. Culture supernatants from the wells of the 48-well plate and basolateral chambers of the 24-well plate were collected and stored at −70 °C degrees less than one month prior to the analytes assessment. […]

## Psd1: pea defensin from Pisum sativum (UNIPROT P81929), recombinant peptide overexpressed in Escherichia coli (KTCEHLADTYRGVCFTNASCDDHCKNKAHLISGTCHNWKCFCTQNC; UniProt P81929 1-46, looked up)
Caco-2/dendritic cells co-culture with C. albicans, 2 μM
  production of TNFα, IL-6, IL-8/CXCL8, IL-12, IL-27, G-CSF, GM-CSF, and MIPs induced by C. albicans: inhibited the production
Caco-2/moDCs+Candida+Psd1
  EGF level: 4.72 pg/mL
  Eotaxin level: <3.52↓ pg/ml
  FGF-2 level: 37.17 pg/mL
  FLT-3L level: 0.57 pg/mL
  Fractalkine level: <17.82↓ pg/ml
  G-CSF level: 3.15 pg/mL
  GM-CSF level: 1.96 pg/mL
  GROa level: 23.25 pg/mL
  IFNa2 level: 7.95 pg/mL
  IFNg level: <2.23↓ pg/ml
  IL-1RA level: 160.3 pg/mL
  IL-1a level: 3.72 pg/mL
  IL-1b level: <2.26↓ pg/ml
  IL-2 level: 1.49 pg/mL
  IL-3 level: <0.60↓ pg/ml
  IL-4 level: <1.14↓ pg/ml
  IL-5 level: 2.95 pg/mL
  IL-6 level: 1.46 pg/mL
  IL-7 level: <0.38↓ pg/ml
  IL-8 level: 107.27 pg/mL
  IL-9 level: 4.69 pg/mL
  IL-10 level: 17.03 pg/mL
  IL-12 (p40) level: 52.85 pg/mL
  IL-12 (p70) level: <1.68↓ pg/ml
  IL-13 level: 11.06 pg/mL
  IL-15 level: 8.46 pg/mL
  IL-17A level: <2.09↓ pg/ml
  IL-17E/IL-25 level: <18.85↓ pg/ml
  IL-17F level: <19.03↓ pg/ml
  IL-18 level: 4.94 pg/mL
  IL-22 level: <5.23↓ pg/ml
  IL-27 level: 49.72 pg/mL
  IP-10 level: 334.16 pg/mL
  M-GSF level: 123.66 pg/mL
  MCP-1 level: 307.65 pg/mL
  MCP-3 level: 19.67 pg/mL
  MDC level: 2630 pg/mL
  MIG level: 38259 pg/mL
  MIP-1a level: 16.22 pg/mL
  MIP-1b level: 78.16 pg/mL
  PDGF-AA level: 256.1 pg/mL
  PDGF-AB/BB level: 97.16 pg/mL
  RANTES level: <0.62↓ pg/ml
  TGF-a level: 35.55 pg/mL
  TNFa level: 18.93 pg/mL
  TNFb level: 0.97 pg/mL
  VEGFa level: 75.3 pg/mL
  sCD40L level: 84.71 pg/mL
Caco-2/moDCs+Psd1
  EGF level: 4.72 pg/mL
  Eotaxin level: <3.52↓ pg/ml
  FGF-2 level: 45.43 pg/mL
  FLT-3L level: 0.57 pg/mL
  Fractalkine level: <17.82↓ pg/ml
  G-CSF level: 9.1 pg/mL
  GM-CSF level: 3.93 pg/mL
  GROa level: 21.95 pg/mL
  IFNa2 level: 5.69 pg/mL
  IFNg level: <2.23↓ pg/ml
  IL-1RA level: 141.59 pg/mL
  IL-1a level: 4.37 pg/mL
  IL-1b level: 9.3 pg/mL
  IL-2 level: 1.57 pg/mL
  IL-3 level: <0.60↓ pg/ml
  IL-4 level: <1.14↓ pg/ml
  IL-5 level: 3.35 pg/mL
  IL-6 level: 2.41 pg/mL
  IL-7 level: <0.38↓ pg/ml
  IL-8 level: 134.16 pg/mL
  IL-9 level: 3.44 pg/mL
  IL-10 level: 10.61 pg/mL
  IL-12 (p40) level: 52.85 pg/mL
  IL-12 (p70) level: <1.68↓ pg/ml
  IL-13 level: 16.44 pg/mL
  IL-15 level: 10.29 pg/mL
  IL-17A level: <2.09↓ pg/ml
  IL-17E/IL-25 level: <18.85↓ pg/ml
  IL-17F level: <19.03↓ pg/ml
  IL-18 level: 4.84 pg/mL
  IL-22 level: <5.23↓ pg/ml
  IL-27 level: 53.57 pg/mL
  IP-10 level: 330.74 pg/mL
  M-GSF level: 144.24 pg/mL
  MCP-1 level: 362.92 pg/mL
  MCP-3 level: 20.63 pg/mL
  MDC level: 2562 pg/mL
  MIG level: 32839 pg/mL
  MIP-1a level: 20.66 pg/mL
  MIP-1b level: 85.91 pg/mL
  PDGF-AA level: 233.14 pg/mL
  PDGF-AB/BB level: 92.84 pg/mL
  RANTES level: <0.62↓ pg/ml
  TGF-a level: 40.15 pg/mL
  TNFa level: 20.96 pg/mL
  TNFb level: 1.55 pg/mL
  VEGFa level: 82.2 pg/mL
  sCD40L level: 98.67 pg/mL
